Results taken from article PMC5825229 (Molecular cell, 2017).
Substitutions are numbered along the chain they refer to.

What was measured:
Assay type in all cases: biochemical
[1] = target: T1, human MCU and EMRE reconstituted in yeast mitochondria (HsMCU/EMRE) (Homo sapiens, UniProt Q8NE86); assay: aequorin Ca2+ uptake rate in isolated yeast mitochondria, Hill fit
T1 sequence (Q8NE86 51-351): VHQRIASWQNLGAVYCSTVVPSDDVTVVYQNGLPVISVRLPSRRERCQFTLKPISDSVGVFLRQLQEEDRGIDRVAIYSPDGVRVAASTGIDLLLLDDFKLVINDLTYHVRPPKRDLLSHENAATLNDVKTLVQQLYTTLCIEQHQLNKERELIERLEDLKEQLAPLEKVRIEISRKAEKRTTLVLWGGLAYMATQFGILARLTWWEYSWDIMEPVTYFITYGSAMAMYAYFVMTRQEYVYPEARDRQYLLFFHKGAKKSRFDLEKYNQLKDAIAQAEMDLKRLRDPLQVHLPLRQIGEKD
T1 sequence (Q9H4I9 53-107 partner): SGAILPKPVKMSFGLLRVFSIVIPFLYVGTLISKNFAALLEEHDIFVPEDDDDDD

[2] = target: T2, human MCU and EMRE reconstituted in yeast mitochondria (HsMCU/EMRE) (Homo sapiens, UniProt Q8NE86, D261A); assay: aequorin peak Ca2+ in isolated yeast mitochondria, Hill fit
T2 sequence (Q8NE86 51-351 D261A): T1 sequence (Q8NE86 51-351) with D211A
T2 sequence (Q9H4I9 53-107 partner): T1 sequence (Q9H4I9 53-107 partner)

[3] = target: T3, MCU (native mitochondrial calcium uniporter of HEK293T mitoplasts and HeLa cells) (Homo sapiens, UniProt Q8NE86); assay: whole-mitoplast patch clamp, HEK293T; details: 1 mM bath Ca2+, -160 mV; bath (cytosolic) side, reversible
T3 sequence (Q8NE86 51-351): T1 sequence (Q8NE86 51-351)
T3 sequence (Q9H4I9 53-107 partner): T1 sequence (Q9H4I9 53-107 partner)

| IC50 [1] [µM] | SMILES | IC50 [2] [µM] | % reduction of MCU Ca2+ current at 10 μM [3] |
| --- | --- | --- | --- |
| 36 ± 0.2 | Nc1ccc(NCCNCCO)c2c1C(=O)c1c(O)ccc(O)c1C2=O [impurity A] | – | – |
| 15 ± 1 | NCCNc1ccc(NCCN)c2c1C(=O)c1ccncc1C2=O [pixantrone] | 31.8 ± 6.5 | – |

| SMILES | IC50 [1] [µM] | IC50 [2] [µM] | % reduction of MCU Ca2+ current at 10 μM [3] |
| --- | --- | --- | --- |
| O=C1c2c(O)ccc(O)c2C(=O)c2c(NCCNCCO)ccc(NCCNCCO)c21 [mitoxantrone] | 8.3 ± 0.9 | 10.7 ± 1.4 | ~ 85% |
